Reference: the NIST ThermoML archive (doi:10.1016/j.jct.2013.01.023)

Assay: mn = molality of the nth substance listed, in mol/kg
Settings: 101 kPa, Liquid; for mass density: Vibrating tube method; for speed of sound: Pulse-echo method

C[N+](C)(C)[O-] [trimethylamine oxide] + O
Settings | mass density, 288.15 K [kg/m3] | mass density, 293.15 K [kg/m3] | mass density, 298.15 K [kg/m3] | mass density, 303.15 K [kg/m3] | mass density, 308.15 K [kg/m3] | speed of sound, 298.15 K [m/s]
m1 = 0.0592 | 999.725 | 998.807 | 997.629 | 996.213 | 994.58 | 1500.9
m1 = 0.1182 | 1000.29 | 999.358 | 998.163 | 996.73 | 995.083 | 1505.1
m1 = 0.1768 | 1000.88 | 999.919 | 998.707 | 997.258 | 995.602 | 1509.2
m1 = 0.2361 | 1001.44 | 1000.47 | 999.234 | 997.769 | 996.09 | 1513.3
m1 = 0.2958 | 1002.09 | 1001.09 | 999.839 | 998.357 | 996.661 | 1517.4

CNCC(=O)O [sarcosine] + O
Settings | mass density, 288.15 K [kg/m3] | mass density, 293.15 K [kg/m3] | mass density, 298.15 K [kg/m3] | mass density, 303.15 K [kg/m3] | mass density, 308.15 K [kg/m3] | speed of sound, 298.15 K [m/s]
m1 = 0.05883 | 1000.7 | 999.78 | 998.598 | 997.176 | 995.552 | 1500.3
m1 = 0.1166 | 1002.25 | 1001.31 | 1000.12 | 998.68 | 997.042 | 1503.9
m1 = 0.1777 | 1003.88 | 1002.92 | 1001.7 | 1000.25 | 998.599 | 1507.7
m1 = 0.2363 | 1005.42 | 1004.43 | 1003.2 | 1001.74 | 1000.07 | 1511.3
m1 = 0.2987 | 1007.05 | 1006.03 | 1004.79 | 1003.31 | 1001.63 | 1515.2

NCC(=O)O [2-aminoacetic acid] + O
Settings | mass density, 288.15 K [kg/m3] | mass density, 293.15 K [kg/m3] | mass density, 298.15 K [kg/m3] | mass density, 303.15 K [kg/m3] | mass density, 308.15 K [kg/m3] | speed of sound, 298.15 K [m/s]
m1 = 0.06261 | 1001.13 | 1000.21 | 999.029 | 997.604 | 995.978 | 1499.9
m1 = 0.1199 | 1002.98 | 1002.03 | 1000.83 | – | 997.751 | 1502.8
m1 = 0.1769 | 1004.8 | 1003.84 | 1002.62 | 1001.15 | 999.494 | 1505.8
m1 = 0.2352 | 1006.65 | 1005.66 | 1004.42 | 1002.94 | 1001.28 | 1508.8
m1 = 0.2963 | 1008.56 | 1007.54 | 1006.29 | 1004.79 | 1003.12 | 1512

CN(C)CC(=O)O [(Dimethylamino)acetic acid] + O
Settings | mass density, 288.15 K [kg/m3] | mass density, 293.15 K [kg/m3] | mass density, 298.15 K [kg/m3] | mass density, 303.15 K [kg/m3] | mass density, 308.15 K [kg/m3] | speed of sound, 298.15 K [m/s]
m1 = 0.05966 | 1000.46 | 999.537 | 998.354 | 996.925 | 995.303 | 1500.9
m1 = 0.119 | 1001.8 | 1000.85 | 999.646 | 998.203 | 996.574 | 1505.1
m1 = 0.1791 | 1003.14 | 1002.16 | 1000.94 | 999.477 | 997.836 | 1509.4
m1 = 0.2399 | 1004.48 | 1003.48 | 1002.23 | 1000.75 | 999.104 | 1513.6
m1 = 0.3007 | 1005.8 | 1004.78 | 1003.51 | 1002.02 | 1000.37 | 1517.9

C[N+](C)(C)CC(=O)[O-] [(trimethylammonio)acetate] + O
Settings | mass density, 288.15 K [kg/m3] | mass density, 293.15 K [kg/m3] | mass density, 298.15 K [kg/m3] | mass density, 303.15 K [kg/m3] | mass density, 308.15 K [kg/m3] | speed of sound, 298.15 K [m/s]
m1 = 0.06226 | 1000.25 | 999.33 | 998.149 | 996.726 | 995.1 | 1501.3
m1 = 0.125 | 1001.4 | 1000.46 | 999.253 | 997.814 | 996.18 | 1505.9
m1 = 0.1884 | 1002.54 | 1001.57 | 1000.35 | 998.899 | 997.254 | 1510.5
m1 = 0.2532 | 1003.69 | 1002.7 | 1001.46 | 999.994 | 998.337 | 1515.2
m1 = 0.3185 | 1004.83 | 1003.83 | 1002.56 | 1001.08 | 999.42 | 1519.9
